Activity calls are given as the source filed them. No cut-off for these calls is given here.
Legend:
CCRF-CEM [1] = assay: Potentiation of JQ1-induced antileukemic activity against human CCRF-CEM cells at 4.3 uM in presence of bone-marrow derived stromal cell-conditioned medium; assay type: functional, cell-based
MOLM-14 [2] = assay: Potentiation of gileritinib-induced antileukemic activity against human MOLM-14 cells at 4.3 uM in presence of bone-marrow derived stromal cell-conditioned medium; assay type: functional, cell-based
MOLM-14 [3] = assay: Potentiation of alisertib-induced antileukemic activity against human MOLM-14 cells at 4.3 uM in presence of bone-marrow derived stromal cell-conditioned medium; assay type: functional, cell-based
MOLM-14 [4] = assay: Potentiation of sunitinib-induced antileukemic activity against human MOLM-14 cells at 4.3 uM in presence of bone-marrow derived stromal cell-conditioned medium; assay type: functional, cell-based
CCRF-CEM [5] = assay: Potentiation of vermurafenib-induced antileukemic activity against human CCRF-CEM cells at 4.3 uM in presence of bone-marrow derived stromal cell-conditioned medium; assay type: functional, cell-based
CCRF-CEM [6] = assay: Potentiation of everolimus-induced antileukemic activity against human CCRF-CEM cells at 4.3 uM in presence of bone-marrow derived stromal cell-conditioned medium; assay type: functional, cell-based
[7] = molecular target: Bromodomain-containing protein 3 (Homo sapiens, UniProt Q15059); assay: Inhibition of BRD3-BD2 (unknown origin) incubated for 6 hrs by HTRF method
[8] = molecular target: Bromodomain-containing protein 4 (Homo sapiens, UniProt O60885); assay: Inhibition of BRD4-BD2 (unknown origin) incubated for 6 hrs by HTRF method
MOLM-14 [9] = assay: Potentiation of palbociclib-induced antileukemic activity against human MOLM-14 cells at 4.3 uM in presence of bone-marrow derived stromal cell-conditioned medium; assay type: functional, cell-based
MOLM-14 [10] = assay: Potentiation of selinexor-induced antileukemic activity against human MOLM-14 cells at 4.3 uM in presence of bone-marrow derived stromal cell-conditioned medium; assay type: functional, cell-based
MOLM-14 [11] = assay: Potentiation of vincristine-induced antileukemic activity against human MOLM-14 cells at 4.3 uM in presence of bone-marrow derived stromal cell-conditioned medium; assay type: functional, cell-based
MOLM-14 [12] = assay: Potentiation of bosutinib-induced antileukemic activity against human MOLM-14 cells at 4.3 uM in presence of bone-marrow derived stromal cell-conditioned medium; assay type: functional, cell-based
MOLM-14 [13] = assay: Potentiation of decitabine-induced antileukemic activity against human MOLM-14 cells at 4.3 uM in presence of bone-marrow derived stromal cell-conditioned medium; assay type: functional, cell-based
U-937 [14] = assay: Potentiation of JQ1-induced antileukemic activity against human U-937 cells at 4.3 uM in presence of bone-marrow derived stromal cell-conditioned medium; assay type: functional, cell-based
CCRF-CEM [15] = assay: Potentiation of AGI-5198-induced antileukemic activity against human CCRF-CEM cells at 4.3 uM in presence of bone-marrow derived stromal cell-conditioned medium; assay type: functional, cell-based
CCRF-CEM [16] = assay: Potentiation of venetoclax-induced antileukemic activity against human CCRF-CEM cells at 4.3 uM in presence of bone-marrow derived stromal cell-conditioned medium; assay type: functional, cell-based
U-937 [17] = assay: Potentiation of azacitidine-induced antileukemic activity against human U-937 at 4.3 uM in presence of bone-marrow derived stromal cell-conditioned medium; assay type: functional, cell-based
CCRF-CEM [18] = assay: Potentiation of seliciclib-induced antileukemic activity against human CCRF-CEM cells at 4.3 uM in presence of bone-marrow derived stromal cell-conditioned medium; assay type: functional, cell-based
CCRF-CEM [19] = assay: Potentiation of asparaginase-induced antileukemic activity against human CCRF-CEM cells at 4.3 uM in presence of bone-marrow derived stromal cell-conditioned medium; assay type: functional, cell-based
CCRF-CEM [20] = assay: Potentiation of topotecan-induced antileukemic activity against human CCRF-CEM cells at 4.3 uM in presence of bone-marrow derived stromal cell-conditioned medium; assay type: functional, cell-based
CCRF-CEM [21] = assay: Potentiation of GSK2879552-induced antileukemic activity against human CCRF-CEM cells at 4.3 uM in presence of bone-marrow derived stromal cell-conditioned medium; assay type: functional, cell-based
CCRF-CEM [22] = assay: Potentiation of vorinostat-induced antileukemic activity against human CCRF-CEM cells at 4.3 uM in presence of bone-marrow derived stromal cell-conditioned medium; assay type: functional, cell-based
K562 = assay: Inhibition of IFNgamma induced MHC-1 expression in human K562 cells treated for 48 hrs by flow cytometric analysis; assay type: functional, cell-based; conditions: dose 0.2-20 µM
MOLM-14 [23] = assay: Potentiation of gefitinib-induced antileukemic activity against human MOLM-14 cells at 4.3 uM in presence of bone-marrow derived stromal cell-conditioned medium; assay type: functional, cell-based
CCRF-CEM [24] = assay: Potentiation of hydroxychloroquine-induced antileukemic activity against human CCRF-CEM cells at 4.3 uM in presence of bone-marrow derived stromal cell-conditioned medium; assay type: functional, cell-based
U-937 [25] = assay: Potentiation of AG-221-induced antileukemic activity against human U-937 cells at 4.3 uM in presence of bone-marrow derived stromal cell-conditioned medium; assay type: functional, cell-based
MOLM-14 [26] = assay: Potentiation of topotecan-induced antileukemic activity against human MOLM-14 cells at 4.3 uM in presence of bone-marrow derived stromal cell-conditioned medium; assay type: functional, cell-based
CCRF-CEM [27] = assay: Potentiation of gefitinib-induced antileukemic activity against human CCRF-CEM cells at 4.3 uM in presence of bone-marrow derived stromal cell-conditioned medium; assay type: functional, cell-based
MOLM-14 [28] = assay: Potentiation of metformin -induced antileukemic activity against human MOLM-14 cells at 4.3 uM in presence of bone-marrow derived stromal cell-conditioned medium; assay type: functional, cell-based
U-937 [29] = assay: Potentiation of clofarabine-induced antileukemic activity against human U-937 cells at 4.3 uM in presence of bone-marrow derived stromal cell-conditioned medium; assay type: functional, cell-based
U-937 [30] = assay: Potentiation of -mastinib -induced antileukemic activity against human U-937 cells at 4.3 uM in presence of bone-marrow derived stromal cell-conditioned medium; assay type: functional, cell-based
U-937 [31] = assay: Potentiation of GSK126-induced antileukemic activity against human U-937 cells at 4.3 uM in presence of bone-marrow derived stromal cell-conditioned medium; assay type: functional, cell-based
CCRF-CEM [32] = assay: Potentiation of navitoclax-induced antileukemic activity against human CCRF-CEM cells at 4.3 uM in presence of bone-marrow derived stromal cell-conditioned medium; assay type: functional, cell-based
CCRF-CEM [33] = assay: Potentiation of MK2206-induced antileukemic activity against human CCRF-CEM cells at 4.3 uM in presence of bone-marrow derived stromal cell-conditioned medium; assay type: functional, cell-based
U-937 [34] = assay: Potentiation of vorinostat-induced antileukemic activity against human U-937 cells at 4.3 uM in presence of bone-marrow derived stromal cell-conditioned medium; assay type: functional, cell-based
MOLM-14 [35] = assay: Potentiation of vorinostat-induced antileukemic activity against human MOLM-14 cells at 4.3 uM in presence of bone-marrow derived stromal cell-conditioned medium; assay type: functional, cell-based
MOLM-14 [36] = assay: Potentiation of -mastinib -induced antileukemic activity against human MOLM-14 cells at 4.3 uM in presence of bone-marrow derived stromal cell-conditioned medium; assay type: functional, cell-based
[37] = molecular target: Bromodomain-containing protein 2 (Homo sapiens, UniProt P25440); assay: Inhibition of BRD2-BD2 (unknown origin) incubated for 6 hrs by HTRF method
U-937 [38] = assay: Potentiation of luminespid-induced antileukemic activity against human U-937 cells at 4.3 uM in presence of bone-marrow derived stromal cell-conditioned medium; assay type: functional, cell-based
MOLM-14 [39] = assay: Potentiation of idarubicin-induced antileukemic activity against human MOLM-14 cells at 4.3 uM in presence of bone-marrow derived stromal cell-conditioned medium; assay type: functional, cell-based
CCRF-CEM [40] = assay: Potentiation of crenolatinib-induced antileukemic activity against human CCRF-CEM cells at 4.3 uM in presence of bone-marrow derived stromal cell-conditioned medium; assay type: functional, cell-based

Bromodomain-containing protein 2, sequence (P25440 whole entry): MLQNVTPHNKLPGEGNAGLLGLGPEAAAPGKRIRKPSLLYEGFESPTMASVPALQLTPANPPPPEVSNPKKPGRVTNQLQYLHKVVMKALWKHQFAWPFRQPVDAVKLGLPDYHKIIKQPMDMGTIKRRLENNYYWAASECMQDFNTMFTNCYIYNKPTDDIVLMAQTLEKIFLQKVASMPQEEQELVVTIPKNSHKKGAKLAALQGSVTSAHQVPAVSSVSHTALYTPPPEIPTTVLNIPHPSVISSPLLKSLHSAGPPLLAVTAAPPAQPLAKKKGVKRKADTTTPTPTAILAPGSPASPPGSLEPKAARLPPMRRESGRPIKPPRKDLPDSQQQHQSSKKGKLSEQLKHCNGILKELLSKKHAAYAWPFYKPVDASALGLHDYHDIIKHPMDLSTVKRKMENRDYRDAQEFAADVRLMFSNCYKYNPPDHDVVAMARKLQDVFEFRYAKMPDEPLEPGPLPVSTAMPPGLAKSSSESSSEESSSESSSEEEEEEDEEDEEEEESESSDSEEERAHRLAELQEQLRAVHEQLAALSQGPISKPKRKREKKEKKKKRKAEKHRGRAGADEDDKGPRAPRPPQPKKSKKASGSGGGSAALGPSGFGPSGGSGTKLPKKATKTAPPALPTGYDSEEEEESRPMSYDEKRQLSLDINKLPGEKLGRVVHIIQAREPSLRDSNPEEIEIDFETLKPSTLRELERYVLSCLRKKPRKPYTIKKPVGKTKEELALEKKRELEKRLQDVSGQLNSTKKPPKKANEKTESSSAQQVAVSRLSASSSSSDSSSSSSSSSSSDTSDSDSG
Bromodomain-containing protein 3, sequence (Q15059 whole entry): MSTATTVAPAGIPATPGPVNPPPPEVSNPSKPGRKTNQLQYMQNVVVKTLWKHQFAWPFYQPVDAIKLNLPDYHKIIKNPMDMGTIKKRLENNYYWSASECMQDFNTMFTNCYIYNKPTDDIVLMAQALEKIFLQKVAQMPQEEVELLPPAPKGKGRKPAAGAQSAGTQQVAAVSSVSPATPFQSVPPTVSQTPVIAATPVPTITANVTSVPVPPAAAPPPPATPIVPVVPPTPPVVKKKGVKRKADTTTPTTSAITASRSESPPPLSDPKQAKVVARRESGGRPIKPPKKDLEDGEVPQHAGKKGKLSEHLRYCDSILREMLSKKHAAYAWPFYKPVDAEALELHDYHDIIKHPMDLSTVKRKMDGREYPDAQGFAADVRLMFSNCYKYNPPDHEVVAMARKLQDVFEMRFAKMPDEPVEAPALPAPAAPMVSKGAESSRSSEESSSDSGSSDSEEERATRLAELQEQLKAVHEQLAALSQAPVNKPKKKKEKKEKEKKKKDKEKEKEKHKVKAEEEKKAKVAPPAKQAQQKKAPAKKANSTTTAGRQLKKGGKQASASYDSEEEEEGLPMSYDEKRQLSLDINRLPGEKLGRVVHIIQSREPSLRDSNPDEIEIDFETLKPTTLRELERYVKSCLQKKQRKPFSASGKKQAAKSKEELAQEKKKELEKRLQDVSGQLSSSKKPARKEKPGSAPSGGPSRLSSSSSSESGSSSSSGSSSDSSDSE

In the case of `CC(=O)N1CCc2c(sc3nc(SCC(=O)Nc4cccnc4C)n(Cc4ccco4)c(=O)c23)C1`, the Activity (CCRF-CEM [1]) is reported as “inactive”, the Activity (MOLM-14 [2]) is reported as “inactive” and the Activity (MOLM-14 [3]) is reported as “inactive”. For the same compound, the Activity (MOLM-14 [4]) was “inactive”, the Activity (CCRF-CEM [5]) was “inactive” and the Activity (CCRF-CEM [6]) was “inactive”. The IC50 [7] was 20 nM, the IC50 [8] was 130 nM and the Activity (MOLM-14 [9]) was “inactive”. The Activity (MOLM-14 [10]) was “inactive”, the Activity (MOLM-14 [11]) was “inactive” and the Activity (MOLM-14 [12]) was “inactive”. For the same compound, the Activity (MOLM-14 [13]) was “inactive”, the Activity (U-937 [14]) was “inactive” and the Activity (CCRF-CEM [15]) was “inactive”. For the same compound, the Activity (CCRF-CEM [16]) was “inactive”, the Activity (U-937 [17]) was “inactive” and the Activity (CCRF-CEM [18]) was “inactive”. The Activity (CCRF-CEM [19]) was “inactive”, the Activity (CCRF-CEM [20]) was “inactive” and the Activity (CCRF-CEM [21]) was “inactive”. The Activity (CCRF-CEM [22]) was “inactive”, the Activity (K562) was “Dose-Dependent Effect” and the Activity (MOLM-14 [23]) was “inactive”. The Activity (CCRF-CEM [24]) was “inactive”, the Activity (U-937 [25]) was “inactive” and the Activity (MOLM-14 [26]) was “inactive”. The Activity (CCRF-CEM [27]) was “inactive”, the Activity (MOLM-14 [28]) was “inactive” and the Activity (U-937 [29]) was “inactive”. For the same compound, the Activity (U-937 [30]) was “inactive”, the Activity (U-937 [31]) was “inactive” and the Activity (CCRF-CEM [32]) was “inactive”. For the same compound, the Activity (CCRF-CEM [33]) was “inactive”, the Activity (U-937 [34]) was “inactive” and the Activity (MOLM-14 [35]) was “inactive”. For the same compound, the Activity (MOLM-14 [36]) was “inactive”, the IC50 [37] was 71 nM and the Activity (U-937 [38]) was “inactive”. For the same compound, the Activity (MOLM-14 [39]) was “inactive” and the Activity (CCRF-CEM [40]) was “inactive”.

— ChEMBL document CHEMBL5046315, “CRCM5484: A BET-BDII Selective Compound with Differential Anti-leukemic Drug Modulation” (J Med Chem, 2022)
